Test results published in patent US5444174A, “16-membered macrolide derivative having sustained antibacterial activity in plasma, synthesis intermediate thereof and process for producing the same” (Meiji Seika Kaisha, Ltd., priority 1992, dated 1995).
In brackets after ≈: the same amount, converted by molar mass. Like-named read-outs stand apart in the source and are kept apart here.

Experiments:
[1] = Storage stability of synthesis intermediates; format: physicochemical; settings: room temperature storage
B. catarrhalis W-0500 = assay: Antibacterial activity (MIC), agar plate dilution method; format: cell-based; settings: Moraxella catarrhalis, W0500; 37° C., 20 hours; blood agar seed culture; B. catarrhalis W-0500; read-out: Antibacterial activity (MIC)
Protocol: (§1) Antibacterial activities of the compounds of formula (I) are shown in Table 1 in terms of minimum inhibitory concentration (MIC).
(§2) Minimum inhibitory concentration was determined by the agar plate dilution method. Test strains were subjected to seed culture using Sensitivity test broth (STB, Nissui Pharmaceutical) except that the strains belonging to the genus Streptococcus, Branhamella and Haemophilus were cultured on blood agar plate. A 5 μl portion of cell suspension of the test strains having about 10^6 CFU/ml was inoculated into Sensitivity disk agar (SDA, Nissui Pharmaceutical) supplemented with 5% horse blood and incubated at 37° C. for 20 hours. Then, MIC was measured.

B. catarrhalis W-0506 = assay: as above; format: cell-based; settings: Moraxella catarrhalis, read-out: Antibacterial activity (MIC)
Protocol: as §1, §2

E. coli NIHJ JC-2 = assay: as above; format: cell-based; settings: Escherichia coli, NIHJJC2, 37° C., 20 hours
Protocol: as §1, §2

Ent. faecalis W-73 = assay: as above; format: cell-based; settings: Enterococcus faecalis, W73, 37° C., 20 hours
Protocol: as §1, §2

H. influenza 9334 = assay: as above; format: cell-based; settings: 37° C., 20 hours, blood agar seed culture
Protocol: as §1, §2

K. pneumoniae PC1602 = assay: as above; format: cell-based; settings: Klebsiella pneumoniae, 37° C., 20 hours
Protocol: as §1, §2

M. luteus ATCC 9341 = assay: as above; format: cell-based; settings: Micrococcus luteus, ATCC9341, 37° C., 20 hours
Protocol: as §1, §2

S. Pyogenes Cook = assay: as above; format: cell-based; settings: Streptococcus pyogenes, 37° C., 20 hours, blood agar seed culture
Protocol: as §1, §2

S. pneumoniae IP692 = assay: as above; format: cell-based; settings: Streptococcus pneumoniae, 37° C., 20 hours, blood agar seed culture
Protocol: as §1, §2

S. pneumoniae Type 1 = assay: as above; format: cell-based; settings: Streptococcus pneumoniae, TYPE1, 37° C., 20 hours, blood agar seed culture
Protocol: as §1, §2

Sta. aureus 209P JC-1 = assay: as above; format: cell-based; settings: Staphylococcus aureus, 37° C., 20 hours
Protocol: as §1, §2

Sta. aureus M126 = assay: as above; format: cell-based; settings: Staphylococcus aureus, 37° C., 20 hours
Protocol: as §1, §2

Sta. aureus M133 = assay: as above; format: cell-based; settings: Staphylococcus aureus; 37° C., 20 hours; Sta. aureus M133; read-out: Antibacterial activity (MIC)
Protocol: as §1, §2

[2] = test system: Sta. aureus MS15009/pMS98; assay: as above; format: cell-based; settings: Staphylococcus aureus, MS15009/PMS98, 20 h, read-out: Antibacterial activity (MIC)
Protocol: as §1, §2

[3] = test system: Sta. aureus MS15009/pMS99; assay: as above; format: cell-based; settings: Staphylococcus aureus, MS15009/PMS99, 20 h, read-out: Antibacterial activity (MIC)
Protocol: as §1, §2

Sta. aureus MS15026 = assay: as above; format: cell-based; settings: Staphylococcus aureus, 37° C., 20 hours
Protocol: as §1, §2

Sta. aureus MS15027 = assay: as above; format: cell-based; settings: Staphylococcus aureus, read-out: Antibacterial activity (MIC)
Protocol: as §1, §2

[4] = test system: Sta. epidermidis ATCC 14990; assay: as above; format: cell-based; settings: Staphylococcus epidermidis, ATCC14990; 37° C., 20 hours; Sta. epidermidis ATCC 14990; read-out: Antibacterial activity (MIC)
Protocol: as §1, §2

gram-positive bacteria = assay: Antibacterial activities against gram-positive bacteria (summary of Table 1); format: cell-based; settings: in words
Protocol: as §1, §2

M. luteus [5] = format: in vitro ADME
Protocol: Changes in the antibacterial activities of miokamycin (MOM) and the compound (13) were measured in the following manner.
(§3) Each test compound and 50 μl of a methanol solution (10,000 γ) were added to 950 μl of thawed rat plasma and the resulting mixture was incubated at 37° C. A 20 μl portion of the mixture was sampled after 0, 1, 3, 6 and 24 hours and added to 980 μl of 0.05M phosphate buffer (pH 7.2). A 20 μl portion of the sample solution was used to measure antibacterial activity against M. luteus. Separately, the calibration curve was prepared by using a methanol solution containing each test compound. The starting activity of each compound in the plasma was referred to as 100%.

M. luteus [6] = format: in vitro ADME; remark: listed apart in the source
Protocol: as §3
Changes in the antibacterial activities of miokamycin and the compound (14) against M. luteus were measured in the same manner as described above except for using fresh rat plasma in place of thawed rat plasma. The fresh rat plasma was prepared by collecting 50 ml of blood from five rats, treating the blood with heparin and subjecting it to centrifugation to obtain plasma.

[7] = cited from earlier work
[8] = vs midecamycin; cited from earlier work
[9] = cited from earlier work; remark: listed apart in the source
[10] = human compared with rat; cited from earlier work
[11] = W0506, 37° C., 20 hours, blood agar seed culture, B. catarrhalis W-0506
[12] = 37° C., 20 hours, Sta. aureus MS15027

Compound | MIC (B. catarrhalis W-0500) [µg/mL] | MIC (E. coli NIHJ JC-2) [µg/mL] | MIC (Ent. faecalis W-73) [µg/mL] | MIC (H. influenza 9334) [µg/mL] | MIC (K. pneumoniae PC1602) [µg/mL] | MIC (M. luteus ATCC 9341) [µg/mL] | MIC (S. Pyogenes Cook) [µg/mL] | MIC (S. pneumoniae IP692) [µg/mL] | MIC (S. pneumoniae Type 1) [µg/mL] | MIC (Sta. aureus 209P JC-1) [µg/mL] | MIC (Sta. aureus M126) [µg/mL] | MIC (Sta. aureus M133) [µg/mL] | MIC [2] [µg/mL] | MIC [3] [µg/mL] | MIC (Sta. aureus MS15026) [µg/mL] | MIC [4] [µg/mL] | antibacterial activities against gram-positive bacteria (gram-positive bacteria) | MIC (B. catarrhalis W-0506; [11]) [µg/mL] | MIC (Sta. aureus MS15027; [12]) [µg/mL] | other results
CCC(=O)O[C@@H]1CC(=O)O[C@H](C)C/C=C/C=C/C(=O)[C@H](C)C[C@H](CC2OCCO2)[C@H](O[C@@H]2O[C@H](C)[C@@H](O)[C@H]([N+](C)(C)[O-])[C@H]2O)[C@H]1OC [Compound (2)] |  |  |  |  |  |  |  |  |  |  |  |  |  |  |  |  |  |  |  | stability [1]: so stable as to be stored at room temperature for a prolonged period of time
CCO[C@H]1[C@H](C)O[C@@H](O[C@H]2[C@H](N(C)C)[C@@H](O)[C@H](O[C@H]3[C@@H](CC=O)C[C@@H](C)C(=O)/C=C/C=C/C[C@@H](C)OC(=O)C[C@@H](OC(=O)CC)[C@@H]3OC)O[C@@H]2C)C[C@@]1(C)OC [Compound (13)] | 3.13 (≈ 3.92 µM) | > 100 | 3.13 (≈ 3.92 µM) | 100 (≈ 125 µM) | > 100 | 0.78 (≈ 0.977 µM) | 0.78 (≈ 0.977 µM) | 1.56 (≈ 1.95 µM) | 1.56 (≈ 1.95 µM) | 3.13 (≈ 3.92 µM) | > 100 | 3.13 (≈ 3.92 µM) | 6.25 (≈ 7.83 µM) | > 100 | > 100 | 12.5 (≈ 15.7 µM) | have antibacterial activities against gram-positive bacteria |  |  | MIC (B. catarrhalis W-0506; W0506, 20 h): 6.25 µg/mL (≈ 7.83 µM); MIC (Sta. aureus MS15027; MS15027, 20 h): 6.25 µg/mL (≈ 7.83 µM); antibacterial activity in rat plasma over time (M. luteus [5]): antibacterial activity sustaining for a prolonged period of time in rat plasma; degree of the decrease in the antibacterial activity in plasma (M. luteus [5]): clearly lower degree of the decrease in the antibacterial activity in plasma, compared with miokamycin; metabolism at the mycarose moiety in plasma (M. luteus [5]): hardly metabolized at the mycarose moiety
CCC(=O)O[C@@H]1CC(=O)O[C@H](C)C/C=C/C=C/C(=O)[C@H](C)C[C@H](CC=O)[C@H](O[C@@H]2O[C@H](C)[C@@H](O[C@H]3C[C@@](C)(OC)[C@@H](OCCC(C)C)[C@H](C)O3)[C@H](N(C)C)[C@H]2O)[C@H]1OC [Compound (14)] | 0.78 (≈ 0.929 µM) | > 100 | 1.56 (≈ 1.86 µM) | 6.25 (≈ 7.44 µM) | > 100 | 0.1 (≈ 0.119 µM) | 0.05 (≈ 0.0595 µM) | 0.1 (≈ 0.119 µM) | 0.2 (≈ 0.238 µM) | 0.2 (≈ 0.238 µM) | > 100 | 0.78 (≈ 0.929 µM) | 0.78 (≈ 0.929 µM) | > 100 | > 100 | 0.78 (≈ 0.929 µM) | have antibacterial activities against gram-positive bacteria | 0.78 (≈ 0.929 µM) | 0.78 (≈ 0.929 µM) | antibacterial activities compared with miokamycin (gram-positive bacteria; vs miokamycin): excellent antibacterial activities exceeding that of miokamycin; antibacterial activity in rat plasma over time (M. luteus [6]): antibacterial activity sustaining for a prolonged period of time in rat plasma; degree of the decrease in the antibacterial activity in plasma (M. luteus [6]): clearly lower degree of the decrease in the antibacterial activity in plasma, compared with miokamycin; metabolism at the mycarose moiety in plasma (M. luteus [6]): hardly metabolized at the mycarose moiety
CCC(=O)O[C@@H]1CC(=O)O[C@H](C)C/C=C/C=C/[C@H](OC(C)=O)[C@H](C)C[C@H](CC=O)[C@H](O[C@@H]2O[C@H](C)[C@@H](O[C@H]3C[C@@](C)(OC(C)=O)[C@@H](OC(=O)CC)[C@H](C)O3)[C@H](N(C)C)[C@H]2O)[C@H]1OC [Miokamycin, miokamycin, reference compound] | 1.56 (≈ 1.74 µM) | > 100 | 1.56 (≈ 1.74 µM) | 6.25 (≈ 6.96 µM) | > 100 | 0.1 (≈ 0.111 µM) | 0.1 (≈ 0.111 µM) | 0.2 (≈ 0.223 µM) | 0.2 (≈ 0.223 µM) | 0.2 (≈ 0.223 µM) | > 100 | 0.78 (≈ 0.869 µM) | 0.78 (≈ 0.869 µM) | > 100 | > 100 | 0.78 (≈ 0.869 µM) |  | 1.56 (≈ 1.74 µM) | 0.78 (≈ 0.869 µM) | antibacterial activity after metabolism in vivo [7]: the antibacterial activity of this antibiotic is reduced; elimination of acyl group at the mycarose moiety in vivo [7]: eliminated in vivo; infection-protective action in vivo [8]: superior to midecamycin; recovery ratio in urine ([9]; vs midecamycin): superior to midecamycin; dynamics in vivo ([9]; vs natural compounds): superior in the dynamics in vivo to natural compounds; metabolic pattern of the deacylation of the mycarose moiety in human [10]: almost similar to that in rat
